This passage reports Kd and inhibition results from patent US20260183407A1, “DYRK/CLK PROTACS AND USES THEREOF” (Arizona Board of Regents on Behalf of the University of …, priority 2022, published 2026).

Assay [1] addresses T1, DYRK1A (Homo sapiens, UniProt Q13627).
T1 construct: purchased Eurofins; host or cells: E. coli BL21-derived (T7 phage display) or HEK-293
The assay can be described thus: KdELECT kinase binding assay (Eurofins), DYRK1A. The settings on record: 11-point 3-fold dilution series, qPCR readout; read-out: Binding Affinity (Kd) DYRK1A. As for the experimental part:
(§1) KDs were obtained from Eurofins who used the following procedure: Kinase tagged T7 phase strains were prepared in an E. coli host derived from the BL21 strain. E. coli were grown to log-phase and infected with T7 phage and incubated with shaking at 32° C. until lysis. The lysates were centrifuged and filtered to remove cell debris. The remaining kinases were produced in HEK-293 cells and subsequently tagged with DNA for qPCR detection. Streptavidin-coated magnetic beads were treated with biotinylated small molecule ligands for 30 minutes at room temperature to generate affinity resins for kinase assays. The liganded beads were blocked with excess biotin and washed with locking buffer (SeaBlock (Pierce), 1% BSA, 0.05% Tween 20, 1 mM DTT) to remove unbound ligand and to reduce non-specific binding. Binding reactions were assembled by combining kinases, liganded affinity beads, and test compounds in 1× binding buffer (20% SeaBlock, 0.17× PBS, 0.05% Tween 20, 6 mM DTT). Test compounds were prepared as 111X stocks in 100% DMSO. Kds were determined using a 11-poin 3-fold compound dilution series with three DMSO control points. All compounds for Kd measurements are distributed by acoustic transfer (non-contact dispensing) in 100% DMSO. The compounds were then diluted directly into the assays such that the final concentration of DMSO was 0.9%. All reactions performed in polypropylene 384-well plate. Each was a final volume of 0.02 mL. The assay plates were incubated at room temperature with shaking for 1 hour and the affinity beads were washed with wash buffer (1×PBS, 0.05% Tween 20). The beads were then resuspended in elution buffer (1X PBS, 0.05% Tween 20, 0.5 µM nonbiotinylated affinity ligand) and incubated at room temperature with shaking for 30 minutes. The kinase concentration in the eluates was measured by qPCR.
Background: In qPCR the cycle at which signal appears reflects the starting amount.

The target in the next assay is T2, DYRK1B (Homo sapiens, UniProt Q9Y463).
T2 construct: purchased Eurofins; host or cells: E. coli BL21-derived (T7 phage display) or HEK-293
The assay can be described thus: KdELECT kinase binding assay (Eurofins), DYRK1B. The settings on record: 11-point 3-fold dilution series, qPCR readout; read-out: Binding Affinity (Kd) DYRK1B. As for the experimental part: as §1

Assay [2] concerns the target T1, DYRK1A. The assay is described as follows: HiBiT split luciferase assay of targeted degradation of DYRK1A in Flp-In T-REx 293 cells. It is filed as cell-based. The settings on record: 300 nM compound, 24 h, HiBiT-tagged DYRK1A in Flp-In T-REx 293 cells, normalized to vehicle; read-out: Relative Degradation at 300 nM DYRK1A. From the text: The Flp-In T-REx 293 Cell Line and the pcDNA5/FRT/TO vector (Invitrogen) were used to generate stable cell clones for tetracyclin-inducible expression of DYRK1A and DYRK1B. These cells contain a single stably integrated Flp recognition target (FRT) site, which allows for site-specific integration of the expression cassette by the Flp (Flippase) recombinase. DYRK1 constructs were designed to contain a C-terminal HiBiT tag for quantitative detection of HiBiT-tagged proteins in cellular lysates with the help a split luciferase assay (Nano-Glo HiBiT Lytic Detection System, Promega). To monitor the targeted degradation of DYRK1A or DYRK1B, cells were seeded in 96-well plates (10,000 cells/per well) and treated with doxycyclineinal concentration 2 μg/ml) to induce DYRK1 expression. Compounds with presumed PROTAC activity were administered 24 h after seeding. After further incubation for 24 h, cells were grossly and microscopically inspected for overt toxicity. Cells were lysed in 100 μL ice-cold passive lysis buffer (PLB, Promega) by orbital shaking (30 min on ice) before lysates were centrifuged in PCR tube (20 min 20,000 g, RT). A 10 μl aliquot of the supernatant was subjected to the HiBiT lytic assay. Luminescence was quantified in an Orion Microplate luminometer (Berthold Detection System, Germany). All compounds were tested in duplicate or triplicate wells (technical replicates) and at least two independent experiments. Relative degradation was calculated by normalization to vehicle-treated control samples.
In general terms: With HiBiT, luminescence reflects the tagged protein that the partner subunit can reach.

T2 sequence (Q9Y463 whole entry, species assumed): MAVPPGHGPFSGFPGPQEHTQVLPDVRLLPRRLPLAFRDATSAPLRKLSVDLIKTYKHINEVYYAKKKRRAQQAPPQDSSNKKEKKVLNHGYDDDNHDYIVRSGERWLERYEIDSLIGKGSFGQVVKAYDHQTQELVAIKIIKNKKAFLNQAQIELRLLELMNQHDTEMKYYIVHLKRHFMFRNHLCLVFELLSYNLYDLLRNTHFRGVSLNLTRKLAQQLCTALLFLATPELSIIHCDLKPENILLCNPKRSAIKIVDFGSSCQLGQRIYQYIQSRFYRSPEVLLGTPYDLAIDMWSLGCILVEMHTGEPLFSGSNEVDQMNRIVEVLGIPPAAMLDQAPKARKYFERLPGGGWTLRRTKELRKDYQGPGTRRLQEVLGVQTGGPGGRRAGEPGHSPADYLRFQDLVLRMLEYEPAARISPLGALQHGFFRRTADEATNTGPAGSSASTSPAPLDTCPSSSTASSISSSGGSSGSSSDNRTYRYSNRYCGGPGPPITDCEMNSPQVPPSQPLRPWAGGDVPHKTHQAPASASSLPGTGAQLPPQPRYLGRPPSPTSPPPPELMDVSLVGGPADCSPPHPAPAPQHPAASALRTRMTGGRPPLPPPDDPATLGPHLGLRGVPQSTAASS

For `Cc1nc2ccc(-c3ccnc(N)c3)nc2n1-c1cc(F)c(N2CCN(CC#Cc3ccc(N4CCC(C(=O)N5CCC(n6cc(COc7ccc(C8CCC(=O)NC8=O)cc7)cn6)CC5)CC4)nc3)CC2)c(F)c1` (stereo not drawn) [Compound 34, 3-(4-((1-(1-(1-(5-(3-(4-(4-(5-(2-aminopyridin-4-yl)-2-methyl-3H-imidazo[4,5-b]pyridin-3-yl)-2,6-difluorophenyl)piperazin-1-yl)prop-1-yn-1-yl)pyridin-2-yl)piperidine-4-carbonyl)piperidin-4-yl)-1H-pyrazol-4-yl)methoxy)phenyl)piperidine-2,6-dione], the Kd at DYRK1A [1] and at DYRK1B was below 10 nM in each case.

Regarding `Cc1nc2ccc(-c3ccnc(N)c3)nc2n1-c1cc(F)c(N2CCN(C3CN(CC#Cc4ccc(N5CCC(C(=O)N6CCC(n7cc(CNc8cccc9c8C(=O)N(C8CCC(=O)NC8=O)C9=O)cn7)CC6)CC5)nc4)C3)CC2)c(F)c1` (stereo not drawn) [Compound 39, 4-(((1-(1-(1-(5-(3-(3-(4-(4-(5-(2-aminopyridin-4-yl)-2-methyl-3H-imidazo[4,5-b]pyridin-3-yl)-2,6-difluorophenyl)piperazin-1-yl)azetidin-1-yl)prop-1-yn-1-yl)pyridin-2-yl)piperidine-4-carbonyl)piperidin-4-yl)-1H-pyrazol-4-yl)methyl)amino)-2-(2,6-dioxopiperidin-3-yl)isoindoline-1,3-dione], the Kd on DYRK1A [1] and at DYRK1B was below 10 nM each time.

As to `Cc1nc2ccc(-c3ccnc(N)c3)nc2n1-c1ccc(N2CCN(C(=O)CN3CCC(CC(=O)N4CCC(n5cc(CNc6cccc7c6C(=O)N(C6CCC(=O)NC6=O)C7=O)cn5)CC4)CC3)CC2)c(F)c1` (stereo not drawn) [Compound 17, 4-(((1-(1-(2-(1-(2-(4-(4-(5-(2-aminopyridin-4-yl)-2-methyl-3H-imidazo[4,5-b]pyridin-3-yl)-2-fluorophenyl)piperazin-1-yl)-2-oxoethyl)piperidin-4-yl)acetyl)piperidin-4-yl)-1H-pyrazol-4-yl)methyl)amino)-2-(2,6-dioxopiperidin-3-yl)isoindoline-1,3-dione], the inhibition at 0.3 µM on DYRK1A [2] was below 30%. In addition, the Kd (in general, a measure of binding affinity in units of concentration) at DYRK1A [1] is below 10 nM.

On to `Cc1nc2ccc(-c3ccnc(N)c3)nc2n1-c1ccc(N2CCN(C(=O)CCCCCN3CCN(Cc4ccc(CNc5cccc6c5CN(C5CCC(=O)NC5=O)C6=O)cc4)CC3)CC2)c(F)c1` (stereo not drawn) [Compound 15, 3-(4-((4-((4-(6-(4-(4-(5-(2-aminopyridin-4-yl)-2-methyl-3H-imidazo[4,5-b]pyridin-3-yl)-2-fluorophenyl)piperazin-1-yl)-6-oxohexyl)piperazin-1-yl)methyl)benzyl)amino)-1-oxoisoindolin-2-yl)piperidine-2,6-dione], for which, on DYRK1A [2], the inhibition at 0.3 µM is below 30%. The equilibrium dissociation constant (Kd) on DYRK1A [1] is below 10 nM.

Regarding `Cc1nc2ccc(-c3ccnc(N)c3)nc2n1-c1cc(F)c(N2C[C@@H](C)N(CC#Cc3ccc(N4CCC(C(=O)N5CCC(n6cc(CNc7cccc8c7C(=O)N(C7CCC(=O)NC7=O)C8=O)cn6)CC5)CC4)nc3)[C@@H](C)C2)c(F)c1` (stereo partly drawn) [Compound 37, 4-(((1-(1-(1-(5-(3-((2S,6R)-4-(4-(5-(2-aminopyridin-4-yl)-2-methyl-3H-imidazo[4,5-b]pyridin-3-yl)-2,6-difluorophenyl)-2,6-dimethylpiperazin-1-yl)prop-1-yn-1-yl)pyridin-2-yl)piperidine-4-carbonyl)piperidin-4-yl)-1H-pyrazol-4-yl)methyl)amino)-2-(2,6-dioxopiperidin-3-yl)isoindoline-1,3-dione], the Kd at DYRK1A [1] was below 10 nM; at DYRK1B, 10 to 100 nM.

Regarding `Cc1nc2ccc(-c3ccnc(N)c3)nc2n1-c1cc(F)c(N2CCN(C3CCN(CC#Cc4ccc(N5CCC(C(=O)N6CCC(n7cc(CNc8cccc9c8C(=O)N(C8CCC(=O)NC8=O)C9=O)cn7)CC6)CC5)nc4)CC3)CC2)c(F)c1` (stereo not drawn) [Compound 36, 4-(((1-(1-(1-(5-(3-(4-(4-(4-(5-(2-aminopyridin-4-yl)-2-methyl-3H-imidazo[4,5-b]pyridin-3-yl)-2,6-difluorophenyl)piperazin-1-yl)piperidin-1-yl)prop-1-yn-1-yl)pyridin-2-yl)piperidine-4-carbonyl)piperidin-4-yl)-1H-pyrazol-4-yl)methyl)amino)-2-(2,6-dioxopiperidin-3-yl)isoindoline-1,3-dione], the equilibrium dissociation constant (Kd) at DYRK1A [1] and at DYRK1B was below 10 nM in each case.

Consider `COc1cc(-n2c(C)nc3ccc(-c4ccnc(N)c4)nc32)ccc1N1CCN(CCC#Cc2ccc(N3CCC(C(=O)N4CCC(n5cc(CNc6cccc7c6C(=O)N(C6CCC(=O)NC6=O)C7=O)cn5)CC4)CC3)nc2)CC1` (stereo not drawn) [Compound 38, 4-(((1-(1-(1-(5-(4-(4-(4-(5-(2-aminopyridin-4-yl)-2-methyl-3H-imidazo[4,5-b]pyridin-3-yl)-2-methoxyphenyl)piperazin-1-yl)but-1-yn-1-yl)pyridin-2-yl)piperidine-4-carbonyl)piperidin-4-yl)-1H-pyrazol-4-yl)methyl)amino)-2-(2,6-dioxopiperidin-3-yl)isoindoline-1,3-dione], for which the results for the Kd on DYRK1A [1] and at DYRK1B were below 10 nM and 10 to 100 nM, respectively.

As for `Cc1nc2ccc(-c3ccnc(N)c3)nc2n1-c1ccc(N2CCN(CCOCCOCCOCCC(=O)NC3CN(c4ccc5c(c4)C(=O)N(C4CCC(=O)NC4=O)C5=O)C3)CC2)c(F)c1` (stereo not drawn) [Compound 8, 3-(2-(2-(2-(4-(4-(5-(2-aminopyridin-4-yl)-2-methyl-3H-imidazo[4,5-b]pyridin-3-yl)-2-fluorophenyl)piperazin-1-yl)ethoxy)ethoxy)ethoxy)-N-(1-(2-(2,6-dioxopiperidin-3-yl)-1,3-dioxoisoindolin-5-yl)azetidin-3-yl)propanamide], the inhibition at 0.3 µM at DYRK1A [2] is below 30%. Besides, the Kd on DYRK1A [1] was below 10 nM.

In the case of `Cc1nc2ccc(-c3ccnc(N)c3)nc2n1-c1ccc(N2CCN(CC#Cc3ccc(N4CCC(O)(C(=O)N5CCC(n6cc(CNc7cccc8c7C(=O)N(C7CCC(=O)NC7=O)C8=O)cn6)CC5)CC4)nc3)CC2)c(F)c1` (stereo not drawn) [Compound 33, 4-(((1-(1-(1-(5-(3-(4-(4-(5-(2-aminopyridin-4-yl)-2-methyl-3H-imidazo[4,5-b]pyridin-3-yl)-2-fluorophenyl)piperazin-1-yl)prop-1-yn-1-yl)pyridin-2-yl)-4-hydroxypiperidine-4-carbonyl)piperidin-4-yl)-1H-pyrazol-4-yl)methyl)amino)-2-(2,6-dioxopiperidin-3-yl)isoindoline-1,3-dione], at DYRK1A [2], the inhibition at 0.3 µM is above 60%.

For the molecule `Cc1nc2ccc(-c3ccnc(N)c3)nc2n1-c1cc(F)c(N2CC3(CN(CC#Cc4ccc(N5CCC(C(=O)N6CCC(n7cc(CNc8cccc9c8C(=O)N(C8CCC(=O)NC8=O)C9=O)cn7)CC6)CC5)nc4)C3)C2)c(F)c1` (stereo not drawn) [Compound 40, 4-(((1-(1-(1-(5-(3-(6-(4-(5-(2-aminopyridin-4-yl)-2-methyl-3H-imidazo[4,5-b]pyridin-3-yl)-2,6-difluorophenyl)-2,6-diazaspiro[3.3]heptan-2-yl)prop-1-yn-1-yl)pyridin-2-yl)piperidine-4-carbonyl)piperidin-4-yl)-1H-pyrazol-4-yl)methyl)amino)-2-(2,6-dioxopiperidin-3-yl)isoindoline-1,3-dione], the Kd at DYRK1A [1] was below 10 nM; on DYRK1B it was 10 to 100 nM.

For `Cc1nc2ccc(-c3ccnc(N)c3)nc2n1-c1ccc(N2CCN(CCOCCOCCOCCC(=O)N3CCN(c4ccc5c(c4)C(=O)N(C4CCC(=O)NC4=O)C5=O)CC3)CC2)c(F)c1` (stereo not drawn) [Compound 9, 5-(4-(3-(2-(2-(2-(4-(4-(5-(2-aminopyridin-4-yl)-2-methyl-3H-imidazo[4,5-b]pyridin-3-yl)-2-fluorophenyl)piperazin-1-yl)ethoxy)ethoxy)ethoxy)propanoyl)piperazin-1-yl)-2-(2,6-dioxopiperidin-3-yl)isoindoline-1,3-dione], the inhibition at 0.3 µM at DYRK1A [2] was below 30%. The Kd at DYRK1A [1] was below 10 nM.
